≈ marks a conversion by molar mass, not a printed value. Where two headings read alike, the source gives them in different places.
Assays:
Experiment in all cases: MIC, microdilution broth method (NCCLS)
Type in all cases: cell-based
S. pneumoniae ATCC49619 = conditions: D: S. pneumoniae ATCC49619, 35° C., 16-20 hours
Protocol: (§1) Minimal inhibitory concentration (MIC) has been an indicator of in vitro antibacterial activity widely used in the art. The in vitro antimicrobial activity of the compounds was determined by the microdilution broth method following the test method from the National Committee for Clinical Laboratory Standards (NCCLS). This method is described in the NCCLS Document M7-A4, Vol. 17, No. 2, “Methods for Dilution Antimicrobial Susceptibility Test for Bacteria that Grow Aerobically—Fourth Edition”, which is incorporated herein by reference.
(§2) In this method two-fold serial dilutions of drug in cation adjusted Mueller-Hinton broth are added to wells in microdilution trays. The test organisms are prepared by adjusting the turbidity of actively growing broth cultures so that the final concentration of test organism after it is added to the wells is approximately 5×10^4 CFU/well.
(§3) Following inoculation of the microdilution trays, the trays are incubated at 35° C. for 16-20 hours and then read. […] The amount of growth in the wells containing the test compound is compared with the amount of growth in the growth-control wells (no test compound) used in each tray. As set forth in Table 1, compounds of the present invention were tested against a variety of Gram positive and Gram negative pathogenic bacteria resulting in a range of activities depending on the organism tested.

E. coli OC2605 = conditions: A: E. coli OC2605, 35° C., 16-20 hours
Protocol: as §1, §2, §3

S. aureus ATCC29213 = conditions: B: S. aureus ATCC29213, 35° C., 16-20 hours
Protocol: as §1, §2, §3

E. faecalis ATCC29212 = conditions: C: E. faecalis ATCC29212, 35° C., 16-20 hours
Protocol: as §1, §2, §3

H. influenzae ATCC49247 = conditions: E: H. influenzae ATCC49247, 35° C., 16-20 hours
Protocol: as §1, §2, §3

**Q.** With `CC[C@H]1OC(=O)[C@H](C)C(=O)[C@H](C)[C@@H](O[C@@H]2O[C@H](C)C[C@H](N(C)C)[C@H]2O)[C@](C)(OC(=O)NC/C=C/c2cccc(-c3ccccn3)c2)C[C@@H](C)C(=O)[C@H](C)[C@H]2NC(=O)O[C@@]21C` [Compound 36] as the molecule, how does the MIC (S. pneumoniae ATCC49619) read?
**A.** ≦0.015 μg/mL

**Q.** What about the MIC (E. coli OC2605) of the same molecule?
**A.** 8 µg/mL (≈ 9.58 µM)

**Q.** What about the MIC (S. aureus ATCC29213) of the same molecule?
**A.** 0.12 µg/mL (≈ 0.144 µM)

**Q.** And the MIC (E. faecalis ATCC29212)?
**A.** 0.03 µg/mL (≈ 0.0359 µM)

**Q.** Which results are given for `CC[C@H]1OC(=O)[C@H](C)C(=O)[C@H](C)[C@@H](O[C@@H]2O[C@H](C)C[C@H](N(C)C)[C@H]2O)[C@](C)(OC(=O)NCc2cccc(-c3ccccn3)c2)C[C@@H](C)C(=O)[C@H](C)[C@H]2NC(=O)O[C@@]21C` [Compound 37]?
**A.** MIC (S. pneumoniae ATCC49619): 0.03 µg/mL (≈ 0.0371 µM); MIC (E. coli OC2605): 16 µg/mL (≈ 19.8 µM); MIC (S. aureus ATCC29213): 0.5 µg/mL (≈ 0.618 µM); MIC (E. faecalis ATCC29212): 0.12 µg/mL (≈ 0.148 µM)

**Q.** How did the MIC (S. pneumoniae ATCC49619) turn out when `CC[C@H]1OC(=O)[C@H](C)C(=O)[C@H](C)[C@@H](O[C@@H]2O[C@H](C)C[C@H](N(C)C)[C@H]2O)[C@](C)(OC(=O)NC/C=C/c2ccc3ncccc3c2)C[C@@H](C)C(=O)[C@H](C)[C@H]2NC(=O)O[C@@]21C` [Compound 38] was run?
**A.** ≦0.015 μg/mL

**Q.** And the MIC (E. coli OC2605)?
**A.** 8 µg/mL (≈ 9.89 µM)

**Q.** What about the MIC (S. aureus ATCC29213) of the same molecule?
**A.** 0.12 µg/mL (≈ 0.148 µM)

**Q.** What about the MIC (E. faecalis ATCC29212) of the same molecule?
**A.** 0.03 µg/mL (≈ 0.0371 µM)

**Q.** For `CC[C@H]1OC(=O)[C@H](C)C(=O)[C@H](C)[C@@H](O[C@@H]2O[C@H](C)C[C@H](N(C)C)[C@H]2O)[C@](C)(OC(=O)NC/C=C/c2ccc(-n3cnnc3)cc2)C[C@@H](C)C(=O)[C@H](C)[C@H]2NC(=O)O[C@@]21C` [Compound 40], which MIC (S. pneumoniae ATCC49619) is on record?
**A.** 0.12 µg/mL (≈ 0.145 µM)

**Q.** And the MIC (E. coli OC2605)?
**A.** 16 µg/mL (≈ 19.4 µM)

**Q.** And the MIC (S. aureus ATCC29213)?
**A.** 1 µg/mL (≈ 1.21 µM)

**Q.** And the MIC (E. faecalis ATCC29212)?
**A.** 0.5 µg/mL (≈ 0.606 µM)

**Q.** How did the MIC (E. coli OC2605) turn out when `CC[C@H]1OC(=O)[C@H](C)C(=O)[C@H](C)[C@@H](O[C@@H]2O[C@H](C)C[C@H](N(C)C)[C@H]2O)[C@](C)(OC(=O)NC/C=C/c2cccc3cccnc23)C[C@@H](C)C(=O)[C@H](C)[C@H]2NC(=O)O[C@@]21C` [Compound 46] was run?
**A.** 16 µg/mL (≈ 19.8 µM)

**Q.** And the MIC (H. influenzae ATCC49247)?
**A.** 2 µg/mL (≈ 2.47 µM)

**Q.** What about the MIC (S. aureus ATCC29213) of the same molecule?
**A.** 0.25 µg/mL (≈ 0.309 µM)

**Q.** And the MIC (E. faecalis ATCC29212)?
**A.** 0.06 µg/mL (≈ 0.0742 µM)

**Q.** For `CC[C@H]1OC(=O)[C@H](C)C(=O)[C@H](C)[C@@H](O[C@@H]2O[C@H](C)C[C@H](N(C)C)[C@H]2O)[C@](C)(OC(=O)NC/C=C/c2ccc3cccnc3c2)C[C@@H](C)C(=O)[C@H](C)[C@H]2NC(=O)O[C@@]21C` [Compound 47], which MIC (E. coli OC2605) is on record?
**A.** 16 µg/mL (≈ 19.8 µM)

**Q.** What about the MIC (H. influenzae ATCC49247) of the same molecule?
**A.** 1 µg/mL (≈ 1.24 µM)

**Q.** And the MIC (S. aureus ATCC29213)?
**A.** 0.25 µg/mL (≈ 0.309 µM)

**Q.** What about the MIC (E. faecalis ATCC29212) of the same molecule?
**A.** 0.06 µg/mL (≈ 0.0742 µM)

**Q.** What does the source list for `CC[C@H]1OC(=O)[C@H](C)C(=O)[C@H](C)[C@@H](O[C@@H]2O[C@H](C)C[C@H](N(C)C)[C@H]2O)[C@](C)(OC(=O)NC/C=C/c2cccc(-n3cccn3)n2)C[C@@H](C)C(=O)[C@H](C)[C@H]2NC(=O)O[C@@]21C` [Compound 48]?
**A.** MIC (E. coli OC2605): >16 µg/mL; MIC (H. influenzae ATCC49247): 4 µg/mL (≈ 4.85 µM); MIC (S. aureus ATCC29213): 0.5 µg/mL (≈ 0.606 µM); MIC (E. faecalis ATCC29212): 0.12 µg/mL (≈ 0.145 µM)

**Q.** What does the source list for `CC[C@H]1OC(=O)[C@H](C)[C@@H](O)[C@H](C)[C@@H](O[C@@H]2O[C@H](C)C[C@H](N(C)C)[C@H]2O)[C@](C)(OC(=O)NC/C=C/c2ccc(-c3ncccn3)cc2)C[C@@H](C)C(=O)[C@H](C)[C@H]2NC(=O)O[C@@]21C` [Compound 95]?
**A.** MIC (E. coli OC2605; Escherichia coli, read-out: MIC): > 16 µg/mL; MIC (H. influenzae ATCC49247; Haemophilus influenzae, read-out: MIC): 2 µg/mL (≈ 2.39 µM); MIC (S. aureus ATCC29213; Staphylococcus aureus, read-out: MIC): 1 µg/mL (≈ 1.19 µM); MIC (E. faecalis ATCC29212; Enterococcus faecalis, read-out: MIC): 0.25 µg/mL (≈ 0.298 µM)

**Q.** How did the MIC (E. coli OC2605) turn out when `CCC1OC(=O)C(C)(F)C(=O)C(C)C(OC2OC(C)CC(N(C)C)C2O)C(C)(OC(=O)NCC=Cc2ccc(-c3cccnn3)cc2)CC(C)C(=O)C(C)C2NC(=O)OC12C` (centres unmarked) [Compound 99] was run?
**A.** 8 µg/mL (≈ 9.37 µM)

**Q.** And the MIC (H. influenzae ATCC49247)?
**A.** 1 µg/mL (≈ 1.17 µM)

**Q.** What about the MIC (S. aureus ATCC29213) of the same molecule?
**A.** 0.5 µg/mL (≈ 0.585 µM)

**Q.** What about the MIC (E. faecalis ATCC29212) of the same molecule?
**A.** 0.12 µg/mL (≈ 0.141 µM)

**Q.** For `CCC1OC(=O)C(C)(F)C(=O)C(C)C(OC2OC(C)CC(N(C)C)C2O)C(C)(OC(=O)NCC=Cc2ccc(-c3ccncn3)cc2)CC(C)C(=O)C(C)C2NC(=O)OC12C` (centres unmarked) [Compound 100], which MIC (E. coli OC2605) is on record?
**A.** 16 µg/mL (≈ 18.7 µM)

**Q.** And the MIC (H. influenzae ATCC49247)?
**A.** 2 µg/mL (≈ 2.34 µM)

**Q.** What about the MIC (S. aureus ATCC29213) of the same molecule?
**A.** 0.5 µg/mL (≈ 0.585 µM)

**Q.** What about the MIC (E. faecalis ATCC29212) of the same molecule?
**A.** 0.12 µg/mL (≈ 0.141 µM)

**Q.** How did the MIC (S. pneumoniae ATCC49619) turn out when `CC[C@H]1OC(=O)[C@H](C)C(=O)[C@H](C)[C@@H](O[C@@H]2O[C@H](C)C[C@H](N(C)C)[C@H]2O)[C@](C)(OC(=O)NC2CC(c3ccc(-c4ncccn4)cc3)C2)C[C@@H](C)C(=O)[C@H](C)[C@H]2NC(=O)O[C@@]21C` (some centres unmarked) [Compound 136] was run?
**A.** 2 µg/mL (≈ 2.35 µM)

**Q.** And the MIC (E. coli OC2605)?
**A.** >16 µg/mL

**Q.** And the MIC (H. influenzae ATCC49247)?
**A.** >16 µg/mL

**Q.** What about the MIC (E. faecalis ATCC29212) of the same molecule?
**A.** 4 µg/mL (≈ 4.71 µM)

Source: patent publication US6613747B2, “6-O-carbamoyl ketolide antibacterials” (Ortho-McNeil Pharmaceutical, Inc., priority 2000, dated 2003)
